Laboratory results reported in ChEMBL document CHEMBL5620406, “Synthesis and biological evaluation of novel pyrazole amides as potent mitochondrial complex I inhibitors” (Eur J Med Chem, 2023).
Calls of active or inactive are those of the source. No cut-off for these calls is given here.

Legend:
Homo sapiens = species on record: Homo sapiens; assay: Inhibition of mitochondrial complex I (unknown origin) at 1 uM incubated for 15 mins by microplate reader analysis relative to control
[1] = Inhibition of mitochondrial complex I (unknown origin) incubated for 15 mins by microplate reader analysis; parameters: species or system Homo sapiens
NCM460 = assay: Antiproliferative activity against human NCM460 cells assessed as inhibition of cell growth incubated for 96 hrs by MTT assay; assay type: functional, cell-based; details: NCM460, 96 h
HCT-116 [2] = assay: Antiproliferative activity against human HCT-116 cells assessed as inhibition of cell growth incubated for 96 hrs by MTT assay; assay type: functional, cell-based; details: HCT-116, 96 h
KG-1 [3] = assay: Antiproliferative activity against human KG-1 cells assessed as inhibition of cell growth incubated for 96 hrs by MTT assay; assay type: functional, cell-based; details: KG-1, 96 h
KG-1 [4] = assay: Induction of ROS generation in human KG-1 cells at 32 nM measured for 30 mins by DCFDA-staining based flow cytometry analysis; assay type: functional, cell-based
HCT-116 [5] = assay: Induction of mitochondrial membrane potential depolarization in human HCT-116 cells at 2 nM incubated for 24 hrs by JC-1 staining based flow cytometry analysis; assay type: functional
[6] = Apparent permeability across apical to basolateral side in human Caco-2 cells incubated for 120 mins by LC-MS/MS analysis; assay type: ADME, cell-based
[7] = Apparent permeability across basolateral side to apical in human Caco-2 cells incubated for 120 mins by LC-MS/MS analysis; assay type: ADME, cell-based
[8] = Efflux ratio of apparent permeability across basolateral to apical membrane to apical to basolateral membrane in human Caco-2 cells incubated for 120 mins by LC-MS/MS analysis; assay type: ADME, cell-based

| SMILES | inhibition (Homo sapiens) [%] | also measured |
| --- | --- | --- |
| COc1ccc(NC(=O)c2cc(C)n(Cc3cccc(N4CCN(C(=O)C5CC5)CC4)c3)n2)cc1 | 5.23 |  |
| CC(C)(C)c1cc(C(=O)Nc2ccc(OC(F)(F)F)cc2)nn1Cc1cccc(N2CCC(S(C)(=O)=O)CC2)c1 | 38.7 | IC50 [1]: 1.36 µM |
| CS(=O)(=O)C1CCN(c2cccc(Cn3ccc(C(=O)Nc4ccc(OC(F)(F)F)cc4)n3)c2)CC1 | 26.6 |  |
| Cc1ccc(NC(=O)c2cc(C)n(Cc3cccc(N4CCN(C(=O)C5CC5)CC4)c3)n2)cc1 | 7.73 |  |
| Cc1cccc(NC(=O)c2cc(C)n(Cc3cccc(N4CCN(C(=O)C5CC5)CC4)c3)n2)c1 | 6.44 |  |
| Cc1cc(C(=O)Nc2ccc(OC(F)(F)F)cc2)nn1Cc1ccccc1 | 1.03 |  |
| Cc1cc(C(=O)Nc2cccc(OC(F)(F)F)c2)nn1Cc1cccc(N2CCN(C(=O)C3CC3)CC2)c1 | 3.1 |  |
| Cc1cc(C(=O)Nc2ccccc2OC(F)(F)F)nn1Cc1cccc(N2CCN(C(=O)C3CC3)CC2)c1 | 1.87 |  |
| Cc1cc(C(=O)Nc2ccc(OC(F)(F)F)cc2)nn1Cc1cccc(N2CCOCC2)c1 | 8.94 |  |
| Cc1cc(C(=O)Nc2cc(F)cc(F)c2)nn1Cc1cccc(N2CCN(C(=O)C3CC3)CC2)c1 | 9.58 |  |
| Cc1cc(C(=O)Nc2ccc(OC(F)(F)F)cc2)nn1Cc1cccc(S(=O)(=O)N2CCOCC2)c1 | 4.42 |  |
| COc1ccccc1-c1cccc(Cn2nc(C(=O)Nc3ccc(OC(F)(F)F)cc3)cc2C)c1 | 3.57 |  |
| Cc1cc(C(=O)Nc2ccc(OC(F)(F)F)cc2)nn1Cc1cccc(-c2ccc(C(C)(C)C)cc2)c1 | 29.6 |  |
| Cc1cc(C(=O)Nc2ccccc2)nn1Cc1cccc(N2CCN(C(=O)C3CC3)CC2)c1 | 7.12 |  |
| Cc1ccccc1Cn1nc(C(=O)Nc2ccc(OC(F)(F)F)cc2)cc1C | 1.7 |  |
| Cc1cc(C(=O)Nc2ccc(Cl)c(F)c2)nn1Cc1cccc(N2CCN(C(=O)C3CC3)CC2)c1 | 11.1 |  |
| Cc1cc(C(=O)Nc2ccc(OC(F)(F)F)cc2)nn1Cc1cccc(Br)c1 | 1.54 |  |
| Cc1cc(C(=O)Nc2ccc(OC(F)(F)F)cc2)nn1Cc1cccc(N2CCC(S(C)(=O)=O)CC2)c1 | 49.7 | IC50 [1]: 0.96 µM |
| Cc1cc(C(=O)Nc2ccc(F)cc2)nn1Cc1cccc(N2CCN(C(=O)C3CC3)CC2)c1 | 8.24 |  |
| Cc1cc(C(=O)Nc2ccc(OC(F)(F)F)cc2)nn1Cc1cccnc1 | 1.37 |  |
| Cc1cc(C(=O)Nc2ccc(OC(F)(F)F)cc2)nn1Cc1cccc(-c2ccccc2O)c1 | 25.6 |  |
| Cc1cc(C(=O)Nc2ccc(OC(F)(F)F)cc2)nn1Cc1cccc(-c2ccc(S(C)(=O)=O)cc2)c1 | 52.5 | IC50 [1]: 0.86 µM |

| SMILES | inhibition (Homo sapiens) [%] | also measured |
| --- | --- | --- |
| CS(=O)(=O)C1CCN(c2cccc(Cn3nc(C(=O)Nc4ccc(OC(F)(F)F)cc4)cc3-c3ccccc3)c2)CC1 | 36.3 | IC50 [1]: 1.41 µM |
| Cc1cc(C(=O)Nc2ccc(OC(F)(F)F)cc2)nn1Cc1ccc(F)c(Br)c1 | 1.32 |  |
| C=C(C)[C@H]1Cc2c(ccc3c2O[C@@H]2COc4cc(OC)c(OC)cc4[C@@H]2C3=O)O1 | 71.8 |  |
| CS(=O)(=O)C1CCN(c2cccc(Cn3nc(C(=O)Nc4ccc(OC(F)(F)F)cc4)c4c5nn(c6c5CCC6)c43)c2)CC1 | 29.2 | IC50 [1]: 91.3 µM |
| Cc1cc(C(=O)Nc2cccc(F)c2)nn1Cc1cccc(N2CCN(C(=O)C3CC3)CC2)c1 | 1.54 |  |
| COc1ccc(NC(=O)c2cc(C)n(Cc3cccc(N4CCN(C(=O)C5CC5)CC4)c3)n2)cc1OC | 4.85 |  |
| Cc1cc(C(=O)Nc2ccc(OC(F)(F)F)cc2)nn1Cc1cccc(N2CCS(=O)(=O)CC2)c1 | 6.09 |  |
| Cc1cc(C)cc(-c2cccc(Cn3nc(C(=O)Nc4ccc(OC(F)(F)F)cc4)cc3C)c2)c1 | 3.73 |  |
| Cc1cc(C(=O)Nc2ccc(OC(F)(F)F)cc2)nn1Cc1cccc(N2CCN(S(C)(=O)=O)CC2)c1 | 50.4 | IC50 [1]: 1.06 µM |
| Cc1cc(C(=O)Nc2ccc(OC(F)(F)F)cc2)nn1Cc1ccc(N2CCC(S(C)(=O)=O)CC2)cc1 | 3.85 |  |
| Cc1cc(C(=O)Nc2ccc(OC(F)(F)F)cc2)nn1Cc1cccc(N(C)C2CCOCC2)c1 | 13.5 |  |
| COc1cc(Cn2nc(C(=O)Nc3ccc(OC(F)(F)F)cc3)cc2C)cc(OC)c1 | 2.05 |  |
| Cc1ccc(NC(=O)c2cc(C)n(Cc3cccc(N4CCN(C(=O)C5CC5)CC4)c3)n2)cc1F | 3.49 |  |
| Cc1ccc(Cn2nc(C(=O)Nc3ccc(OC(F)(F)F)cc3)cc2C)cc1 | 8.06 |  |
| CS(=O)(=O)C1CCN(c2cccc(Cn3nc(C(=O)Nc4ccc(OC(F)(F)F)cc4)c4c5nn(c6ccccc56)c43)c2)CC1 | 1.12 | IC50 [1]: 91.3 µM |
| Cc1cc(C(=O)Nc2ccc(OC(F)(F)F)cc2)nn1Cc1ccc2ccccc2c1 | 4.6 |  |
| CS(=O)(=O)C1CCN(c2cccc(Cn3nc(C(=O)Nc4ccc(OC(F)(F)F)cc4)c4c5nn(c6c5COCC6)c43)c2)CC1 | 13.2 | IC50 [1]: 101 µM |
| Cc1nc(-c2nc(-c3ccc(OC(F)(F)F)cc3)no2)nn1Cc1cccc(N2CCC(S(C)(=O)=O)CC2)c1 | 32.7 | IC50 (NCM460): > 1 µM; IC50 [1]: 115 µM; IC50 (HCT-116 [2]): 0.00963 µM; IC50 (KG-1 [3]): 0.0638 µM; Activity (KG-1 [4]): Active; Activity (HCT-116 [5]): 21.1%; Papp A→B at 2 h [6]: 4.86 ×10⁻⁶ cm/s; Papp B→A at 2 h [7]: 3.33 ×10⁻⁶ cm/s; efflux ratio at 2 h [8]: 0.68 |
| Cc1cc(C(=O)Nc2ccccc2F)nn1Cc1cccc(N2CCN(C(=O)C3CC3)CC2)c1 | 1.72 |  |
| Cc1cc(C(=O)Nc2cccnc2)nn1Cc1cccc(N2CCN(C(=O)C3CC3)CC2)c1 | 16.1 |  |
| Cc1cn(Cc2cccc(N3CCC(S(C)(=O)=O)CC3)c2)nc1C(=O)Nc1ccc(OC(F)(F)F)cc1 | 9.43 |  |
